Source: ChEMBL document CHEMBL1909046, “DrugMatrix in vitro pharmacology data”

Key:
[1] = DRUGMATRIX: Atrial Natriuretic Factor (ANF) radioligand binding (ligand: [125I] ANF (rat)); type: cell membranes, Cavia porcellus, Dunkin-Hartley, Adrenal gland, Membrane; settings: Not Active = under 50% inhibition at 10 µM
[2] = biological target: Vascular endothelial growth factor receptor 1 (Homo sapiens, UniProt P17948); experiment: biochemical; type: cell-based, HUVEC; settings: huvec; further: in other assays of this panel Not Active means under 50% inhibition at 10 µM
Sequence of Vascular endothelial growth factor receptor 1 (P17948 whole entry): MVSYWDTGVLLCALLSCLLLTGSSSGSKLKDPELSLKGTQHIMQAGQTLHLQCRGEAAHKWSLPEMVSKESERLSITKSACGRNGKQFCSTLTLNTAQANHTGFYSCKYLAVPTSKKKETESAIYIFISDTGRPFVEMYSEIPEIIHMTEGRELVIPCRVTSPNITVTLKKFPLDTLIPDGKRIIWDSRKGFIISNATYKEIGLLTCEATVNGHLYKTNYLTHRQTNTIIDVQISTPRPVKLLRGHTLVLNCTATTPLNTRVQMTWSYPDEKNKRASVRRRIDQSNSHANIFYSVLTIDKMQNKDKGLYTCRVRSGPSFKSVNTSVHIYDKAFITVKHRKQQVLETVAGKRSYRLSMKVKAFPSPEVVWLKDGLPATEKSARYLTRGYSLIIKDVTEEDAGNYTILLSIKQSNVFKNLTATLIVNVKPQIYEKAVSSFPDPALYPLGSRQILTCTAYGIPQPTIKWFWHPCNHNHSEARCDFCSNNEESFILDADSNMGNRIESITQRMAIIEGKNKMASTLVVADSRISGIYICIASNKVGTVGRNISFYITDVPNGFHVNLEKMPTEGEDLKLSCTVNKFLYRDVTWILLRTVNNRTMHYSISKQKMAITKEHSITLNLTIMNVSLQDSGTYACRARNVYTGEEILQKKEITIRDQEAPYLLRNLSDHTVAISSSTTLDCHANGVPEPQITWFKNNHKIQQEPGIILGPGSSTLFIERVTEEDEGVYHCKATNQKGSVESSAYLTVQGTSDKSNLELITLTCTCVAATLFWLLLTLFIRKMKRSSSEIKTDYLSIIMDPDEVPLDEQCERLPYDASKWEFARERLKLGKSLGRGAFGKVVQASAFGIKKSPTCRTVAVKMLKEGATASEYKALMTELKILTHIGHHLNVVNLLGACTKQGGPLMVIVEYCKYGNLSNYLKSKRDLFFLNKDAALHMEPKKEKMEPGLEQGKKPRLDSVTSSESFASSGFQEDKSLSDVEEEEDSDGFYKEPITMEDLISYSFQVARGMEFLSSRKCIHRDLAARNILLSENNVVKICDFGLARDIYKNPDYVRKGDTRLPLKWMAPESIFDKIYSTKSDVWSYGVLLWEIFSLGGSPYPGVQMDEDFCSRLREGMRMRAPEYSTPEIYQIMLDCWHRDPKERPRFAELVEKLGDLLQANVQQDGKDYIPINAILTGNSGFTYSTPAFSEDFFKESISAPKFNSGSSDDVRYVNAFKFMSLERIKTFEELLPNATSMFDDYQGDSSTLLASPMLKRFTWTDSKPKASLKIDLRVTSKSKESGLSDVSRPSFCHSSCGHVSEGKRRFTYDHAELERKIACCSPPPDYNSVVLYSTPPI

[3] = biological target: T1, Polyunsaturated fatty acid lipoxygenase ALOX15 (Oryctolagus cuniculus, UniProt P12530); experiment: biochemical; type: tissue-based, Reticulocytes; settings: reticulocytes;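 further: inhibition of 15-lipoxygenase enzyme activity measured with linoleic acid as the substrate; in other assays of this panel Not Active means under 50% inhibition at 10 µM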
T1 sequence (P12530 whole entry): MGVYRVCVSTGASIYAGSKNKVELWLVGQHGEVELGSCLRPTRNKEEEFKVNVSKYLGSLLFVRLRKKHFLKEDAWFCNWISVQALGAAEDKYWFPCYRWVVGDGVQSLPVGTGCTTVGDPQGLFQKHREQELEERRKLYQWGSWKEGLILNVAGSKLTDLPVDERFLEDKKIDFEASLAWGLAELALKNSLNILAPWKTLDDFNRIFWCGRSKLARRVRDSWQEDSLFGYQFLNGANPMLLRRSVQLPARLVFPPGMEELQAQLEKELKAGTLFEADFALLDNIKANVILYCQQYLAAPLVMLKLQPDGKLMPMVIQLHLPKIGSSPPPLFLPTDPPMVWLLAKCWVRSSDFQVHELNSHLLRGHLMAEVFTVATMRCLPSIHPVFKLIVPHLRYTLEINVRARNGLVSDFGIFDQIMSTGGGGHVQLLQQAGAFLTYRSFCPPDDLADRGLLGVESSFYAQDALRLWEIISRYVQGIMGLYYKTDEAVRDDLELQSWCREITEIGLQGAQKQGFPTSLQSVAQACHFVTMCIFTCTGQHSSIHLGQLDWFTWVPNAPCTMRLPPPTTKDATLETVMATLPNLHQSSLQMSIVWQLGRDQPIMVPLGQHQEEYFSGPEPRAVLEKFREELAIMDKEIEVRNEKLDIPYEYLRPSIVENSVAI

[4] = biological target: T2, Neuropeptide Y receptor type 2 (Homo sapiens, UniProt P49146); type: cell membranes, Membrane; settings: kan-ts; further: in other assays of this panel Not Active means under 50% inhibition at 10 µM
T2 sequence (P49146 whole entry): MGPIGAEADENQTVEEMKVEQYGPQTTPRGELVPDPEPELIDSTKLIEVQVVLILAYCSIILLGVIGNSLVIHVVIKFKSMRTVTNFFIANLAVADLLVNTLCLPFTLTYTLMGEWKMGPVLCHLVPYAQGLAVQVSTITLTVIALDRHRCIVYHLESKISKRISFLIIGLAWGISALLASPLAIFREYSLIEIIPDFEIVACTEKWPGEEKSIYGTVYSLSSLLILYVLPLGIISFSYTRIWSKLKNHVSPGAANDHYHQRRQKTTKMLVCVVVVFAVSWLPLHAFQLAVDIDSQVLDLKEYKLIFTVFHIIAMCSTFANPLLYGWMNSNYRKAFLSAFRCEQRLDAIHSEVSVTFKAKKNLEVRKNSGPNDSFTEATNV

[5] = biological target: Platelet-activating factor receptor (Homo sapiens, UniProt P25105); experiment: biochemical; type: tissue-based; settings: platelet; further: in other assays of this panel Not Active means under 50% inhibition at 10 µM
Sequence of Platelet-activating factor receptor (P25105 whole entry): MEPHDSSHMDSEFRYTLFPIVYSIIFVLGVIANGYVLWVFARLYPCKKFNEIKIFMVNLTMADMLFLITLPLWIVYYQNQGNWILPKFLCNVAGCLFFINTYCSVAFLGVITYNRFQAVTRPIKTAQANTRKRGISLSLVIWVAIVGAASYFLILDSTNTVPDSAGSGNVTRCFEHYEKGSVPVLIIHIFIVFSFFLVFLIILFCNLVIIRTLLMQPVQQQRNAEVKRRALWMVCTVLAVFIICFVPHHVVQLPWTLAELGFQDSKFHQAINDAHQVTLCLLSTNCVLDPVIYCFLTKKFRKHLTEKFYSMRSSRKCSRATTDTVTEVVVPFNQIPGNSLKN

[6] = biological target: T3, Receptor-type tyrosine-protein phosphatase C (Homo sapiens, UniProt P08575); design: species or system Escherichia coli
T3 sequence (P08575 whole entry): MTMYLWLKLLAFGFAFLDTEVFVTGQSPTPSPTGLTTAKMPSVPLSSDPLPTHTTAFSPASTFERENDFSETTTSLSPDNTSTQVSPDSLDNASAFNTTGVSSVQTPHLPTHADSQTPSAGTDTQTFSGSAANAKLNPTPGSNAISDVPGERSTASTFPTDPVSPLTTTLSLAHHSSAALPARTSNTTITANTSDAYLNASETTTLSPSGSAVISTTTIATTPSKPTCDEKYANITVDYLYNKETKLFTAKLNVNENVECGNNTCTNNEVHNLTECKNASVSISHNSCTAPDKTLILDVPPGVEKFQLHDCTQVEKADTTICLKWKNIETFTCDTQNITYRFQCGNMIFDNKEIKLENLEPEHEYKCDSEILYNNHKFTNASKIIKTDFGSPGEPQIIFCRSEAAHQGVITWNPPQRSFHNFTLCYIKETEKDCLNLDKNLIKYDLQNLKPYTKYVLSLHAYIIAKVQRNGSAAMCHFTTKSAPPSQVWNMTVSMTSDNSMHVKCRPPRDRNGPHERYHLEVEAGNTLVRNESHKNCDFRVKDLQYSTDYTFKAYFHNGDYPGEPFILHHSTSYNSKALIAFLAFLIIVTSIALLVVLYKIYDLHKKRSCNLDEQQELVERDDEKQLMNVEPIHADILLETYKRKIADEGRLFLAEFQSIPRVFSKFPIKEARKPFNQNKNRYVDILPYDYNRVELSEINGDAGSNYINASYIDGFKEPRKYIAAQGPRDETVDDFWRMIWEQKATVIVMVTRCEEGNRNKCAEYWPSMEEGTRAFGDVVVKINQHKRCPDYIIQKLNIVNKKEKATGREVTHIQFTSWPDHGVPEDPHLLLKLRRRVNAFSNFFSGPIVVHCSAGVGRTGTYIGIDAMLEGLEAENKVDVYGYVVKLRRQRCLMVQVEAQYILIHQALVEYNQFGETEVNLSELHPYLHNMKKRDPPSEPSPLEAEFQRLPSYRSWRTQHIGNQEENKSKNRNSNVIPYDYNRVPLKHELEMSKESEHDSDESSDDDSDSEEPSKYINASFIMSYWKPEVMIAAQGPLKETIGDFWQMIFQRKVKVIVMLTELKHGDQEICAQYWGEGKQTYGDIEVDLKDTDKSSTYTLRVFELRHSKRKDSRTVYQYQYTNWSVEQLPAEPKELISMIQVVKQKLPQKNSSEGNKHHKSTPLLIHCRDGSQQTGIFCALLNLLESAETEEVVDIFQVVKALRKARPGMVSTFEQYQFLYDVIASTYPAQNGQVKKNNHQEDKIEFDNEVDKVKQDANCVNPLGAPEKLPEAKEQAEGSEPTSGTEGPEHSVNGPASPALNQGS

Estrogen receptor beta = Estrogen receptor beta (Homo sapiens, UniProt Q92731); settings: sf9; further: in other assays of this panel Not Active means under 50% inhibition at 10 µM
Sequence of Estrogen receptor beta (Q92731 whole entry): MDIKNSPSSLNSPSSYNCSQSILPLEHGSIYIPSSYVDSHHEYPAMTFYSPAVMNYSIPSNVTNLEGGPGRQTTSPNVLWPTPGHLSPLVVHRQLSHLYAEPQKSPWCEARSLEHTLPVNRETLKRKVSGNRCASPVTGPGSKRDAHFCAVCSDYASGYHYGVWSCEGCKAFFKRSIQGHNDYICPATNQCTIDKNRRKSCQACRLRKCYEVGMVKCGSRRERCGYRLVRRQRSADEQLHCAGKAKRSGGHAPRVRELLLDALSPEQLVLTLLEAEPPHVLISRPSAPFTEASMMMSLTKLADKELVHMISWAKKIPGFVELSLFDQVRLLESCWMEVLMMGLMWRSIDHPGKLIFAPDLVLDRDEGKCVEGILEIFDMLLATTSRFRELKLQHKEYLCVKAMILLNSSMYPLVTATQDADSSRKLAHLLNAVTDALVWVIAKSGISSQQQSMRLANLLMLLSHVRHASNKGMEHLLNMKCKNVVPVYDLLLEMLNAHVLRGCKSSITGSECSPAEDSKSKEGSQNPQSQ

Cytochrome P450 2D6 = Cytochrome P450 2D6 (Homo sapiens, UniProt P10635); settings: bti-tn-5b1-4; further: in other assays of this panel Not Active means under 50% inhibition at 10 µM
Sequence of Cytochrome P450 2D6 (P10635 whole entry): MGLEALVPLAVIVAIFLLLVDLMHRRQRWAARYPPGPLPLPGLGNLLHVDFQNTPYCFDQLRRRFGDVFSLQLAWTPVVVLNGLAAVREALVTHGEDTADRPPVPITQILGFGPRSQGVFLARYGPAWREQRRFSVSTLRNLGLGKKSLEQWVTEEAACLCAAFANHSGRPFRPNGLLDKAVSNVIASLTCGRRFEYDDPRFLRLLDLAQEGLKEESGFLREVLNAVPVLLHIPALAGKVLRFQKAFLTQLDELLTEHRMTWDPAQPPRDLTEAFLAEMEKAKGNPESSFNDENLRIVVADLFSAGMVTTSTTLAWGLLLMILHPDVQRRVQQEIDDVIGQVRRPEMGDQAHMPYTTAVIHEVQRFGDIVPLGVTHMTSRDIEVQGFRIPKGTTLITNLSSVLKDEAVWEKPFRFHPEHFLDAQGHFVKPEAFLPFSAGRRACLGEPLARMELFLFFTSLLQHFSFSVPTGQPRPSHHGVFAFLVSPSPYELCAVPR

COc1cc(N)nc2[nH]c(-c3ccc(F)cc3)c(-c3ccncc3)c12
Not Active: IC50 [1] | Ki [1] | IC50 [2] | IC50 [3] | IC50 [4] | IC50 [5] | IC50 [6] | IC50 (Estrogen receptor beta)

CCCc1nn(C)c2c(=O)[nH]c(-c3cc(S(=O)(=O)N4CCN(C)CC4)ccc3OCC)nc12
Not Active: IC50 [1] | Ki [1] | IC50 [2] | IC50 [3] | IC50 [4] | IC50 [5] | IC50 [6] | IC50 (Cytochrome P450 2D6) | Ki (Cytochrome P450 2D6)

CCOC(N)=O
Not Active: IC50 [1] | Ki [1] | IC50 [2] | IC50 [3] | IC50 [4] | IC50 [5] | IC50 [6] | IC50 (Cytochrome P450 2D6) | Ki (Cytochrome P450 2D6)

CC(=O)Nc1nnc(S(N)(=O)=O)s1 [ACETAZOLAMIDE]
Not Active: IC50 [2] | IC50 [3] | IC50 [4] | IC50 [5] | IC50 [6] | IC50 (Cytochrome P450 2D6) | Ki (Cytochrome P450 2D6) | IC50 (Estrogen receptor beta)

O=c1[nH]c2ccccc2n1CCCN1CCC(n2c(=O)[nH]c3cc(Cl)ccc32)CC1 [DOMPERIDONE]
Not Active: IC50 [2] | IC50 [3] | IC50 [4] | IC50 [5] | IC50 [6] | IC50 (Estrogen receptor beta)

CC(C)OC(=O)C(C)(C)Oc1ccc(C(=O)c2ccc(Cl)cc2)cc1 [FENOFIBRATE]
Not Active: IC50 [2] | IC50 [3] | IC50 [4] | IC50 [5] | IC50 [6] | IC50 (Estrogen receptor beta)

OCCN1CCN(CCCN2c3ccccc3Sc3ccc(C(F)(F)F)cc32)CC1 [FLUPHENAZINE]
Not Active: IC50 [2] | IC50 [3] | IC50 [4] | IC50 [5] | IC50 [6] | IC50 (Estrogen receptor beta)

CN1C2CCCC1CC(NC(=O)c1nn(C)c3ccccc13)C2 (stereo not drawn) [GRANISETRON]
Not Active: IC50 [2] | IC50 [3] | IC50 [4] | IC50 [5] | IC50 [6] | IC50 (Estrogen receptor beta)

CC[C@@H](CO)NC(=O)[C@@H]1C=C2c3cccc4c3c(cn4C)C[C@H]2N(C)C1 [METHYSERGIDE]
Not Active: IC50 [2] | IC50 [3] | IC50 [4] | IC50 [5] | IC50 [6] | IC50 (Cytochrome P450 2D6) | Ki (Cytochrome P450 2D6) | IC50 (Estrogen receptor beta)

O=P(O)(O)C(O)(Cc1cccnc1)P(=O)(O)O [RISEDRONIC ACID]
Not Active: IC50 [1] | Ki [1] | IC50 [2] | IC50 [3] | IC50 [4] | IC50 [5] | IC50 [6] | IC50 (Cytochrome P450 2D6) | Ki (Cytochrome P450 2D6)

CN(CCOc1ccc(CC2SC(=O)NC2=O)cc1)c1ccccn1 (stereo not drawn) [ROSIGLITAZONE]
Not Active: IC50 [1] | Ki [1] | IC50 [2] | IC50 [3] | IC50 [4] | IC50 [5] | IC50 [6] | IC50 (Estrogen receptor beta)

C=C(C)[C@H]1Cc2c(ccc3c2O[C@@H]2COc4cc(OC)c(OC)cc4[C@@H]2C3=O)O1 [ROTENONE]
Not Active: IC50 [1] | Ki [1] | IC50 [2] | IC50 [3] | IC50 [4] | IC50 [5] | IC50 [6] | IC50 (Cytochrome P450 2D6) | Ki (Cytochrome P450 2D6)

CN[C@@H]1[C@H](O)[C@H](NC)[C@H]2O[C@@]3(O)C(=O)C[C@@H](C)O[C@H]3O[C@@H]2[C@H]1O [SPECTINOMYCIN]
Not Active: IC50 [1] | Ki [1] | IC50 [2] | IC50 [3] | IC50 [4] | IC50 [5] | IC50 [6] | IC50 (Cytochrome P450 2D6) | Ki (Cytochrome P450 2D6)

Nc1ccc(S(=O)(=O)Nc2nccs2)cc1 [SULFATHIAZOLE]
Not Active: IC50 [1] | Ki [1] | IC50 [2] | IC50 [3] | IC50 [4] | IC50 [5] | IC50 [6] | IC50 (Cytochrome P450 2D6) | Ki (Cytochrome P450 2D6)

CC(C)(C)NC[C@H](O)COc1nsnc1N1CCOCC1 [TIMOLOL]
Not Active: IC50 [1] | Ki [1] | IC50 [2] | IC50 [3] | IC50 [4] | IC50 [5] | IC50 [6] | IC50 (Cytochrome P450 2D6) | Ki (Cytochrome P450 2D6)

CCS(=O)(=O)CCn1c([N+](=O)[O-])cnc1C [TINIDAZOLE]
Not Active: IC50 [1] | Ki [1] | IC50 [2] | IC50 [3] | IC50 [4] | IC50 [5] | IC50 [6]

O=c1n(CCCN2CCN(c3cccc(Cl)c3)CC2)nc2ccccn12 [TRAZODONE]
Not Active: IC50 [2] | IC50 [3] | IC50 [4] | IC50 [5] | IC50 [6] | IC50 (Cytochrome P450 2D6) | Ki (Cytochrome P450 2D6)

O=C(O)C(Cl)(Cl)Cl [TRICHLOROACETIC ACID]
Not Active: IC50 [1] | Ki [1] | IC50 [2] | IC50 [3] | IC50 [4] | IC50 [5] | IC50 [6] | IC50 (Cytochrome P450 2D6) | Ki (Cytochrome P450 2D6)

COc1ccc(CN2CCNCC2)c(OC)c1OC [TRIMETAZIDINE]
Not Active: IC50 [1] | Ki [1] | IC50 [2] | IC50 [3] | IC50 [4] | IC50 [5] | IC50 [6] | IC50 (Estrogen receptor beta)

CC(=O)O[C@H]1C[C@@H]2CC[C@@H]3[C@H](CC[C@@]4(C)[C@H]3C[C@H]([N+]3(C)CCCCC3)[C@@H]4OC(C)=O)[C@@]2(C)C[C@@H]1N1CCCCC1.[Br-] [VECURONIUM BROMIDE]
Not Active: IC50 [1] | Ki [1] | IC50 [2] | IC50 [3] | IC50 [4] | IC50 [5] | IC50 [6] | IC50 (Cytochrome P450 2D6) | Ki (Cytochrome P450 2D6)

Cc1cn([C@H]2C[C@H](N=[N+]=[N-])[C@@H](CO)O2)c(=O)[nH]c1=O [ZIDOVUDINE]
Not Active: IC50 [1] | Ki [1] | IC50 [2] | IC50 [3] | IC50 [4] | IC50 [5] | IC50 [6] | IC50 (Cytochrome P450 2D6) | Ki (Cytochrome P450 2D6)
